We go through 22 molecules from patent US10047051B2, “Substituted pyridines and method of use” (AbbVie S.á{acute over (.)}r.l., priority 2015, dated 2018).

One assay has as its target T1, CFTR ΔF508 mutant (Homo sapiens, UniProt P13569, DEL508-508).
T1 construct: expressed in transfected cells; host or cells: CFBE41o- cells, adenoviral transduction
Kind of assay: YFP-halide influx assay for the CFTR-ΔF508 mutation (CFBE41o- cells). It is filed as cell-based. As to conditions: forskolin 10.67 μM; for EC50: from (1−F/F0) vs concentration plot. In a few lines: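 EC50 derived from plotting 1−F/F0 (fluorescence 36 s after iodide injection over pre-injection value) against compound concentration. Cells: CFBE41o- transduced with ΔF508-CFTR and YFP quench reporter, corrected 24 h at 27° C or by a CFTR modulator at 37° C.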

The next assay addresses T2, CFTR G551D mutant (Homo sapiens, UniProt P13569, G551D).
T2 construct: expressed in transfected cells; host or cells: HEK293 cells, reverse transfection with plasmids
Kind of assay: YFP-halide influx assay for the CFTR-G551D mutation (HEK293 cells). The class given is cell-based. As to conditions: forskolin 10.67 μM. In a few lines:
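Channel opening read as I⁻-driven quenching of a YFP H148Q/I152L/F47L reporter over 7 s post-injection, expressed as 1−F/F0 and fitted against concentration for EC50. Cells were HEK293 co-transfected at seeding with G551D CFTR plus reporter, then grown 24 h at 37 °C, 5% CO2.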

Bounds are passed on as bounds.

T2 sequence (P13569 whole entry G551D): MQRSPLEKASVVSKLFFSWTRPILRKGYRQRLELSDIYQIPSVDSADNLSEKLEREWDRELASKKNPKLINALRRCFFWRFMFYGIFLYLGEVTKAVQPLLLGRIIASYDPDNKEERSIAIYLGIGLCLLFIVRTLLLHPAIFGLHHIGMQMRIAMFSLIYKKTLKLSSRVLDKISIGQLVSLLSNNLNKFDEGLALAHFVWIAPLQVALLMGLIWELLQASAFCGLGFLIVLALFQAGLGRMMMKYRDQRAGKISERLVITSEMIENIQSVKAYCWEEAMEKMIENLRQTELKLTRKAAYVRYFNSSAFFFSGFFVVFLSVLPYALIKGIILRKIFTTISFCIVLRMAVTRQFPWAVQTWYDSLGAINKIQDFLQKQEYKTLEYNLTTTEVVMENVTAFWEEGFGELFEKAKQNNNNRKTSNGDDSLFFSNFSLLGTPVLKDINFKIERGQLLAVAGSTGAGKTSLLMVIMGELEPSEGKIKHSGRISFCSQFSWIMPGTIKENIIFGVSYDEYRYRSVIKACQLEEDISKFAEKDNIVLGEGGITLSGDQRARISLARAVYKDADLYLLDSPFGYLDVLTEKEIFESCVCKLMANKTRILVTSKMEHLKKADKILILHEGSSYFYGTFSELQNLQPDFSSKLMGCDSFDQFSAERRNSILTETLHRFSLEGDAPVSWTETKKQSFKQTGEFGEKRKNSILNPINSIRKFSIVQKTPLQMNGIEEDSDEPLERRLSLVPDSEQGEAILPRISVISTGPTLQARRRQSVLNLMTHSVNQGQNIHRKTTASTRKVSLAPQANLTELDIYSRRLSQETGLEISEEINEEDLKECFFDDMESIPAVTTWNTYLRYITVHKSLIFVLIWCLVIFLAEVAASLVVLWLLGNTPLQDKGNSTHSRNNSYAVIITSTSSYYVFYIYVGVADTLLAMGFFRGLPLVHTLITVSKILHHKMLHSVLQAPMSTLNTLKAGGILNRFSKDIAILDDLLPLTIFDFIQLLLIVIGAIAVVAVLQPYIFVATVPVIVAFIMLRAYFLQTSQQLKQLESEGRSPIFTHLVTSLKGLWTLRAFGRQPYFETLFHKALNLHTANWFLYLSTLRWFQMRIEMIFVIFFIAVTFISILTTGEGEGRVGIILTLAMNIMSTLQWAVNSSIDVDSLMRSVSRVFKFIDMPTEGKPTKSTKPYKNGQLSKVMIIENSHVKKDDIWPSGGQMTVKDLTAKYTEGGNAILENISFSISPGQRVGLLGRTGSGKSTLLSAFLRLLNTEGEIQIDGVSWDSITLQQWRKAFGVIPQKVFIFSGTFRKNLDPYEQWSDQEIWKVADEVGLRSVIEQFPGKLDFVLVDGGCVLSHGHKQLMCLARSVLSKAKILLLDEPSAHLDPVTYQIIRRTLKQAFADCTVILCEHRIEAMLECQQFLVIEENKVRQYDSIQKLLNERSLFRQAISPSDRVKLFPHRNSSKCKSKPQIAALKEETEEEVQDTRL
T1 sequence (P13569 with tags, fused parts or gaps DEL508-508): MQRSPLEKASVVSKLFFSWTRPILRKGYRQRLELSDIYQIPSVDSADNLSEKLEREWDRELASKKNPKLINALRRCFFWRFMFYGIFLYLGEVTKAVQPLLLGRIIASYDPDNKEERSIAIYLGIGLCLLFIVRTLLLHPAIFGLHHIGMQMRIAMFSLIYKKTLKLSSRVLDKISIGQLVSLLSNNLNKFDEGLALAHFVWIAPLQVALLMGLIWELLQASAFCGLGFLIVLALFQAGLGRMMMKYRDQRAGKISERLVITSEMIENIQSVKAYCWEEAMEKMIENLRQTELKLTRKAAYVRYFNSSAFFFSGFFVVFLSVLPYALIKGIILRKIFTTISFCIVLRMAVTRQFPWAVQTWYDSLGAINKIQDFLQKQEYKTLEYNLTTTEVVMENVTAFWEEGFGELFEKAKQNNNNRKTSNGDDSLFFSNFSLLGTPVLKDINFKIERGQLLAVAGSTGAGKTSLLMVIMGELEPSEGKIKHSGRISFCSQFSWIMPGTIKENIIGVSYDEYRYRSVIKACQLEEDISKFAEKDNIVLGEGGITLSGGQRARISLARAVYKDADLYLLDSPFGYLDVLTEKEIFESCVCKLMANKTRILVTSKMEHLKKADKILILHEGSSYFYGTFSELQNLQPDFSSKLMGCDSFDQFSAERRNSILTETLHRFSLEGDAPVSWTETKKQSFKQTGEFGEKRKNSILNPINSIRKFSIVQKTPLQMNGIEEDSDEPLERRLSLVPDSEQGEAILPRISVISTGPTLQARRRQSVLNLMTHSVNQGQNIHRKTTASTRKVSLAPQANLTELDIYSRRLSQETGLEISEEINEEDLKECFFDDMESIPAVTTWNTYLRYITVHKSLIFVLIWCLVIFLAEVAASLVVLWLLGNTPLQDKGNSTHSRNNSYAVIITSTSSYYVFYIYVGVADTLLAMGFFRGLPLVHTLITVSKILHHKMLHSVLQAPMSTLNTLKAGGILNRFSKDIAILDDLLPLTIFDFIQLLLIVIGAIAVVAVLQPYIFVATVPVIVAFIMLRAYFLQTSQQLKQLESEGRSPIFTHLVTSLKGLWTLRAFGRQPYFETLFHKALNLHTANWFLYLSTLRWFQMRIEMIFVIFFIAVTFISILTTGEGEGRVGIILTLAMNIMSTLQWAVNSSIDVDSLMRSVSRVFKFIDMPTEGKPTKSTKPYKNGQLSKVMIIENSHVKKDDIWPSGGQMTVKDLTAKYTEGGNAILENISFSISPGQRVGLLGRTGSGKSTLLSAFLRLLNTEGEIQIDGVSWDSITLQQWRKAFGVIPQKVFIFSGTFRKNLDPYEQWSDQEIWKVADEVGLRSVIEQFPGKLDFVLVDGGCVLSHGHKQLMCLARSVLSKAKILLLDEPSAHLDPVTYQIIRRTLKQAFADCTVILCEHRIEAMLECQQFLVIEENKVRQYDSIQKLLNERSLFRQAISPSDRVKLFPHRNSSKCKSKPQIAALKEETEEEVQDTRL

On to `Nc1cc(S(=O)(=O)c2ccc(C(F)(F)F)cc2)cnc1C(=O)NC[C@H]1CCOC1` [Compound 101, 3-amino-N-[(3R)-tetrahydrofuran-3-ylmethyl]-5-{[4-(trifluoromethyl)phenyl]sulfonyl}pyridine-2-carboxamide], for which, on CFTR ΔF508 mutant, the “% Activation” value is 106.5% and the 50% effective concentration (EC50) (commonly the concentration needed to bring the measured effect to its halfway point) was 64.2 nM. For the same molecule, at CFTR G551D mutant, the “% Activation” value was found to be 71.2% and the EC50 was 1580 nM.

With `CN(CCC(F)(F)F)S(=O)(=O)c1cnc(C(=O)NCC(O)C(F)(F)F)c(N)c1` (centres unmarked) [Compound 225, 3-amino-5-[methyl(3,3,3-trifluoropropyl)sulfamoyl]-N-(3,3,3-trifluoro-2-hydroxypropyl)pyridine-2-carboxamide], the “% Activation” value turned out to be 106.7% at CFTR ΔF508 mutant and 44.2% at CFTR G551D mutant. In addition, the concentration giving a half-maximal response (EC50) at CFTR ΔF508 mutant turned out to be 30.9 nM; on CFTR G551D mutant, 2210 nM.

On to `COCCOCC(O)CNC(=O)c1ncc(S(=O)(=O)c2ccc(C(F)(F)F)cc2)cc1N` (centres unmarked) [Compound 221, 3-amino-N-[2-hydroxy-3-(2-methoxyethoxy)propyl]-5-{[4-(trifluoromethyl)phenyl]sulfonyl}pyridine-2-carboxamide], for which the “% Activation” value on CFTR ΔF508 mutant came out at 101.7%; on CFTR G551D mutant, 55.6%. The EC50 is 54.5 nM on CFTR ΔF508 mutant and 1840 nM on CFTR G551D mutant.

For `COc1ccc(S(=O)(=O)c2cnc(C(=O)NCC(O)C(F)(F)F)c(N)c2)cc1` (centres unmarked) [Compound 220, 3-amino-5-[(4-methoxyphenyl)sulfonyl]-N-(3,3,3-trifluoro-2-hydroxypropyl)pyridine-2-carboxamide], at CFTR ΔF508 mutant, the “% Activation” value was found to be 102.0% and it took 16.9 nM to reach a half-maximal effect (EC50). On CFTR G551D mutant, the “% Activation” value is 71.6% and a half-maximal effect (EC50) was put at 791 nM.

With `COCCCNC(=O)c1ncc(S(=O)(=O)c2ccc(OC(F)(F)F)cc2)cc1N` [Compound 123, 3-amino-N-(3-methoxypropyl)-5-{[4-(trifluoromethoxy)phenyl]sulfonyl}pyridine-2-carboxamide], the “% Activation” value at CFTR ΔF508 mutant is reported as 98.5%; on CFTR G551D mutant, 60.5%. The 50% effective concentration (EC50) at CFTR ΔF508 mutant is 86.2 nM; on CFTR G551D mutant it was 880 nM.

For `Nc1cc(S(=O)(=O)c2ccc(C(F)(F)F)cc2F)cnc1C(=O)N[C@@H]1COCC[C@@H]1O` (racemic) [Compound 218, rac-3-amino-5-{[2-fluoro-4-(trifluoromethyl)phenyl]sulfonyl}-N-[(3R,4S)-4-hydroxytetrahydro-2H-pyran-3-yl]pyridine-2-carboxamide], at CFTR ΔF508 mutant, the “% Activation” value is recorded as 105.8% and the EC50 was found to be 44.4 nM. Further, at CFTR G551D mutant, the “% Activation” value was 43.8% and the EC50 was 1520 nM.

As to `Nc1cc(S(=O)(=O)c2ccc(OC(F)(F)F)cc2)cnc1C(=O)N1CC(F)C1` [Compound 67, (3-amino-5-{[4-(trifluoromethoxy)phenyl]sulfonyl}pyridin-2-yl)(3-fluoroazetidin-1-yl)methanone], at CFTR ΔF508 mutant, the “% Activation” value is 110.0% and the 50% effective concentration (EC50) came out at 25.8 nM. Also, at CFTR G551D mutant, the “% Activation” value was 73.6% and the EC50 was 1590 nM.

Regarding `C[C@@H]1CCCN1S(=O)(=O)c1cnc(C(=O)NCC(O)C(F)(F)F)c(N)c1` (stereo partly drawn) [Compound 179, 3-amino-5-{[(2R)-2-methylpyrrolidin-1-yl]sulfonyl}-N-(3,3,3-trifluoro-2-hydroxypropyl)pyridine-2-carboxamide], on CFTR ΔF508 mutant, the “% Activation” value is recorded as 100.4% and the EC50 is 27.7 nM. In addition, on CFTR G551D mutant, the “% Activation” value turned out to be 52.6% and the EC50 was found to be 1350 nM.

With `CO[C@H]1CCC[C@@H]1NC(=O)c1ncc(S(=O)(=O)c2ccc(C(F)(F)F)cc2)cc1N` [Compound 293, 3-amino-N-[(1S,2S)-2-methoxycyclopentyl]-5-{[4-(trifluoromethyl)phenyl]sulfonyl}pyridine-2-carboxamide], at CFTR ΔF508 mutant, the “% Activation” value came to 87.8% and the midpoint of the response, the EC50, lay at 135 nM. Moreover, on CFTR G551D mutant, the “% Activation” value is listed as 40.8% and the EC50 is above 3330 nM.

For `Nc1cc(S(=O)(=O)c2ccc(OC(F)(F)F)cc2)cnc1C(=O)NC1COC2(CCCC2)C1` (centres unmarked) [Compound 150, 3-amino-N-(1-oxaspiro[4.4]non-3-yl)-5-{[4-(trifluoromethoxy)phenyl]sulfonyl}pyridine-2-carboxamide], on CFTR ΔF508 mutant, the “% Activation” value is recorded as 116.0% and the EC50 is 355 nM. At CFTR G551D mutant, the “% Activation” value came to 49.7% and it took 1070 nM to reach a half-maximal effect (EC50).

Consider `Nc1cc(S(=O)(=O)c2ccccc2)cnc1C(=O)N1CC(O)(C(F)(F)F)C1` [Compound 255, [3-amino-5-(phenyl sulfonyl)pyridin-2-yl][3-hydroxy-3-(trifluoromethyl)azetidin-1-yl]methanone], for which the “% Activation” value on CFTR ΔF508 mutant was 104.2%; at CFTR G551D mutant, 41.8%. The EC50 amounted to 1.3 nM at CFTR ΔF508 mutant and 5770 nM on CFTR G551D mutant.

For the molecule `Nc1cc(S(=O)(=O)c2ccc(C(F)(F)F)cc2)cnc1C(=O)NCCC(F)(F)F` [Compound 212, 3-amino-5-{[4-(trifluoromethyl)phenyl]sulfonyl}-N-(3,3,3-trifluoropropyl)pyridine-2-carboxamide], on CFTR ΔF508 mutant, the “% Activation” value is recorded as 96.7% and the EC50 was 47.1 nM. At CFTR G551D mutant, the “% Activation” value is on record as 33.0%.

Turning to `CC(C)C(C)NC(=O)c1ncc(S(=O)(=O)c2ccc(C(F)(F)F)cc2)cc1N` (centres unmarked) [Compound 188, 3-amino-N-(3-methylbutan-2-yl)-5-{[4-(trifluoromethyl)phenyl]sulfonyl}pyridine-2-carboxamide], the “% Activation” value at CFTR ΔF508 mutant is given as 88.8%; at CFTR G551D mutant, 13.4%. The EC50 at CFTR ΔF508 mutant is 378 nM; on CFTR G551D mutant it was above 10000 nM.

In the case of `Nc1cc(S(=O)(=O)c2ccc(OC(F)(F)F)cc2)cnc1C(=O)N1CC(CO)C1` [Compound 66, (3-amino-5-{[4-(trifluoromethoxy)phenyl]sulfonyl}pyridin-2-yl)[3-(hydroxymethyl)azetidin-1-yl]methanone], at CFTR ΔF508 mutant, the “% Activation” value is given as 106.0% and the EC50 is 12.5 nM. On CFTR G551D mutant, the “% Activation” value is recorded as 60.8% and the midpoint of the response, the EC50, lay at 1550 nM.

Turning to `Nc1cc(S(=O)(=O)c2ccc(C(F)(F)F)cc2F)cnc1C(=O)N1CC(C(F)(F)F)C1` [Compound 160, (3-amino-5-{[2-fluoro-4-(trifluoromethyl)phenyl]sulfonyl}pyridin-2-yl)[3-(trifluoromethyl)azetidin-1-yl]methanone], at CFTR ΔF508 mutant, the “% Activation” value was found to be 113.9% and the EC50 is 23.6 nM. Moreover, at CFTR G551D mutant, the “% Activation” value came to 52.7% and the response was half-maximal at 566 nM (EC50).

Regarding `CC(C)C(CO)NC(=O)c1ncc(S(=O)(=O)c2ccc(OC(F)(F)F)cc2)cc1N` (centres unmarked) [Compound 13, 3-amino-N-(1-hydroxy-3-methylbutan-2-yl)-5-{[4-(trifluoromethoxy)phenyl]sulfonyl}pyridine-2-carboxamide], on CFTR ΔF508 mutant, the “% Activation” value is 101.0% and the EC50 was found to be 39.9 nM. Moreover, on CFTR G551D mutant, the “% Activation” value was 21.3% and the concentration giving a half-maximal response (EC50) was above 10000 nM.

On to `Nc1cc(S(=O)(=O)c2ccc(OC(F)(F)F)cc2)cnc1C(=O)N1CCC(F)(F)C1` [Compound 203, (3-amino-5-{[4-(trifluoromethoxy)phenyl]sulfonyl}pyridin-2-yl)(3,3-difluoropyrrolidin-1-yl)methanone], for which, on CFTR ΔF508 mutant, the “% Activation” value is listed as 92.6% and the half-maximal effective concentration (EC50) was determined as 47.3 nM. For the same molecule, at CFTR G551D mutant, the “% Activation” value was determined as 57.3% and a half-maximal effect (EC50) was put at 1270 nM.

On to `COC[C@H](O)CNC(=O)c1ncc(S(=O)(=O)c2ccc(OC(F)(F)F)cc2)cc1N` [Compound 69, 3-amino-N-[(2R)-2-hydroxy-3-methoxypropyl]-5-{[4-(trifluoromethoxy)phenyl]sulfonyl}pyridine-2-carboxamide], for which, on CFTR ΔF508 mutant, the “% Activation” value came to 102.0% and the EC50 stood at 5.7 nM. In addition, on CFTR G551D mutant, the “% Activation” value is reported as 85.0% and the EC50 amounted to 1080 nM.

Consider `C[C@H](O)CNC(=O)c1nc(OCCN(C)C)c(S(=O)(=O)c2ccc(OC(F)(F)F)cc2)cc1N` [Compound 289, 3-amino-6-[2-(dimethylamino)ethoxy]-N-[(2S)-2-hydroxypropyl]-5-{[4-(trifluoromethoxy)phenyl]sulfonyl}pyridine-2-carboxamide], for which, at CFTR ΔF508 mutant, the “% Activation” value was found to be 97.1% and a half-maximal response (EC50) required 245 nM. The “% Activation” value on CFTR G551D mutant came to 31.0%.

For the molecule `Nc1cc(S(=O)(=O)c2ccc(C(F)(F)F)cc2)cnc1C(=O)N1CC(O)(C(F)(F)F)C1` [Compound 105, (3-amino-5-{[4-(trifluoromethyl)phenyl]sulfonyl}pyridin-2-yl)[3-hydroxy-3-(trifluoromethyl)azetidin-1-yl]methanone], on CFTR ΔF508 mutant, the “% Activation” value is given as 103.5% and a half-maximal response (EC50) required 2 nM. Moreover, on CFTR G551D mutant, the “% Activation” value was found to be 50.4% and the concentration giving a half-maximal response (EC50) was determined as 128 nM.

On to `Nc1cc(S(=O)(=O)c2ccc(C(F)(F)F)cc2)cnc1C(=O)NC[C@H](O)COCC(F)(F)F` [Compound 249, 3-amino-N-[(2S)-2-hydroxy-3-(2,2,2-trifluoroethoxy)propyl]-5-{[4-(trifluoromethyl)phenyl]sulfonyl}pyridine-2-carboxamide], for which, on CFTR ΔF508 mutant, the “% Activation” value was 96.2% and the EC50 turned out to be 3 nM. Moreover, on CFTR G551D mutant, the “% Activation” value was determined as 83.7% and the half-maximal effective concentration (EC50) was determined as 172 nM.

As for `Nc1cc(S(=O)(=O)c2ccc(C(F)(F)F)cc2)cnc1C(=O)N1C[C@@H](O)[C@H](O)C1` [Compound 229, (3-amino-5-{[4-(trifluoromethyl)phenyl]sulfonyl}pyridin-2-yl) [(3R,4R)-3,4-dihydroxypyrrolidin-1-yl]methanone], at CFTR ΔF508 mutant, the “% Activation” value turned out to be 24.0% and the EC50 was above 2000 nM. For the same molecule, on CFTR G551D mutant, the “% Activation” value came out at 1.0% and the EC50 was above 10000 nM.
